Data on one molecule can be found in patent publication US12121596B2, “Near infrared fluorescent dyes, formulations and related methods” (Washington University, priority 2019, dated 2024).

Positions of bridges follow the written chain, without caps; N, C: chain ends. Non-standard residues stand in square brackets, D forms with d. Residues, ends and D or L forms follow the SMILES beside them. *: point of attachment. X1 = CC1(C)C(/C=C/C=C/C=C/C=C2/N(CCC(=O)*)c3ccc4ccccc4c3C2(C)C)=[N+](CCC(=O)[O-])c2ccc3ccccc3c21

Test [1] is described as follows: Microscale thermophoresis (MST), calcium binding. The conditions noted are these: read-out: apparent dissociation constant (Kd), calcium. The text has this: Microscale thermophoresis (MST) studies biomolecular interactions in an aqueous environment without immobilization. MST exploits the directed movement of molecules along a microscopic temperature gradient. The movement rate and direction of movement depend on the species' size, charge, and solvation shell under study. Changes in this environment can change the thermophoretic movement of the species. MST can distinguish very small changes that occur, for example, when a small fluorescent molecule binds to the surface of a protein.
MST was performed using the Monolith NT.115 (Nanotemper Technologies, Munich, Germany). The appropriate agent(s) and LS301 stock samples were denatured in MST-1 buffer (50 mM Tris-HCl, pH 7.4; 150 mM NaCl; 10 mM MgCl2; 2% DMSO; 0.1% Tween-20; 4% SDS, 4 mM dithiothreitol (DTT)) at 97° C. for 10 min. Fluorescence was assessed in MST-2 buffer (50 mM Tris-HCl, pH 7.4; 150 mM NaCl; 10 mM MgCl2). The protein was prepared in MST-2 buffer, and 20 μL serial dilutions were made with protein concentration ranging from 3.05 pM to 50 nM (pANXA2) or 3.81 pM to 62.5 nM (ANXA2). All samples were loaded into NT.115 standard capillaries. […] The apparent Kd values were calculated from fragment concentration-dependent changes in normalized fluorescence (Fraction Bound) of LS301 after 5 seconds of thermophoresis based on mass action law using the MO Affinity Analysis v2.3 software.

The next test deals with T1, ANXA3 (Homo sapiens, UniProt P12429).
T1 construct: purchased MyBioSource, Inc
T1 sequence (P12429 1-323): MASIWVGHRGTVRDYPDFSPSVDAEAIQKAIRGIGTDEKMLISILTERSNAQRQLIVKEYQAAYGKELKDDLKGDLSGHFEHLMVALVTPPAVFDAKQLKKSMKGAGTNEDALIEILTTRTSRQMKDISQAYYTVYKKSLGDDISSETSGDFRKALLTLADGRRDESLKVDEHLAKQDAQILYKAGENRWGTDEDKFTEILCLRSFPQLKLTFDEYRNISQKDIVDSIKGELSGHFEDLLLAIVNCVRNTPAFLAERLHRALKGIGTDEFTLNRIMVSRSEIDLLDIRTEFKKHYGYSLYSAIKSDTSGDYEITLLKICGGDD
Description: Microscale thermophoresis (MST), ANXA3 binding. The conditions noted are these: read-out: apparent Kd, ANXA3. An excerpt: Recombinant proteins and antibodies. Recombinant annexin A2, annexin A2 with glutathione-S-transferase (GST) tag, annexin A1, and annexin A3 proteins were purchased from MyBioSource, Inc. (San Diego, CA, USA). Purified ANXA2 protein and purified pANXA2 protein were gifts from Dr. Gabriel Bimme (Beth Israel Deaconess Medical Center, Boston, MA). Rabbit monoclonal anti-annexin A2 antibody (D11G2, #8235), Rabbit monoclonal anti-Rab5 (C8B1, #3547), and rabbit monoclonal anti-Rab7 (D95F2, #936 7) primary antibodies were purchased from Cell Signaling Technology, Inc. (Danvers, MA, USA). Mouse monoclonal anti-β-actin 2A3 (sc-517582), mouse monoclonal anti-pANXA2 antibody (11.Tyr 24) (sc-135752), rabbit polyclonal anti-NOS2 (C-19, sc-649), rabbit polyclonal anti-ARG1 (H-52, sc-20150) antibodies, and protein A/G agarose were purchased from Santa Cruz Biotechnology, Inc. (Dallas, TX, USA). […]
MST was performed using the Monolith NT.115 (Nanotemper Technologies, Munich, Germany). […] Fluorescence was assessed in MST-2 buffer (50 mM Tris-HCl, pH 7.4; 150 mM NaCl; 10 mM MgCl2). […] The apparent Kd values were calculated from fragment concentration-dependent changes in normalized fluorescence (Fraction Bound) of LS301 after 5 seconds of thermophoresis based on mass action law using the MO Affinity Analysis v2.3 software.
(MST reads how a fluorescent partner responds to local heating, with and without ligand.)

The subject of test [2] is cells expressing wild-type ANXA2 or mutant ANXA2 (Y23A). Nature of the test: LS301 internalization with insulin in cells expressing wild-type or mutant ANXA2 (Y23A). The format is cell-based. As for the experimental part:
For LS301 cell internalization studies involving insulin treatment, cells were grown on Lab-Tek slides overnight. HEK 293T cells (or in some cases 4T1 cells) were maintained in DMEM medium supplemented with 10% fetal bovine serum and 100 units/mL penicillin. After DNA transfection, the HEK 293TAnxa2-WT-GFP and HEK 293TAnxa2-Y23A-GFP cells were maintained in Dulbecco's Modified Eagle's medium (DMEM) medium with 500 μg/mL G418, 10% fetal bovine serum (FBS), and 100 units/mL penicillin. The medium was changed, and cells were grown in serum-starved conditions overnight. Cells were then cultivated with or without 100 nM insulin for 4 h. Then 1 μM of LS301 was added to each sample to incubated for 4 hours or 24 hours at 37° C. Cells were imaged using an FV1000 confocal microscope, and the mean fluorescence intensities (Ex/Em=488/495 nm; Ex/Em=590/617 nm; Ex/Em=780/805-830 nm) were determined using the FV1000 software.

The target of test [3] is T2, ANXA2 over ANXA1 and ANXA3 (Homo sapiens, UniProt P07355).
T2 construct: GST; purchased MyBioSource, Inc
Nature of the test: Annexin selectivity, fluorescent gel binding. The conditions noted are these: ANXA2 vs ANXA1 and ANXA3. How it is done:
For fluorescent gel binding experiments, 1 μg recombinant annexin A2 protein was incubated with LS301 or cypate (10 μM) at 37° C. for the periods indicated. Samples were subjected to SDS-PAGE on precast gels (Bio-Rad, Hercules, CA), and gels were imaged for near-infrared fluorescence (800 nm) using a Pearl Small Animal Imager (LI-COR Biosciences, Lincoln, NE, USA). For competitive binding experiments, Annexin A2-GST, annexin A1, or annexin A3 (1.0 μg protein per sample) was pre-incubated with or without 2.5 mM of LS637 (non-fluorescent LS301 analog; blocking peptide) in binding buffer (25 mM Tris-HCl pH 7.4, 150 mM NaCl, 1 mM MgCl2, 1 mM CaCl2) for 1 hour at 37° C. Ten μM. LS301 was then added to each sample. After incubation for 2 hours at 37° C., proteins were subjected to SDS-PAGE and imaged fluorescently. For some experiments, LS301 was incubated with 4T1 tumor cells before SDS-PAGE.

T2 sequence (P07355 whole entry): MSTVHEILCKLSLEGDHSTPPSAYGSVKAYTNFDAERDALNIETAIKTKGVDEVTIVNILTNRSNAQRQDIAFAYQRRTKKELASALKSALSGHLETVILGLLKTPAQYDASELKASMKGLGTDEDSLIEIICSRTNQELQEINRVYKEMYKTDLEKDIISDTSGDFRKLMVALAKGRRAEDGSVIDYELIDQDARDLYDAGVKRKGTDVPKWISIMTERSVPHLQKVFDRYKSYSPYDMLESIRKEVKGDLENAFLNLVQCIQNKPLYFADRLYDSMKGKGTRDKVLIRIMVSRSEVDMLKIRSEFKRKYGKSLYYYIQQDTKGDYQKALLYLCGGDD

For the molecule `CC1(C)C(/C=C/C=C/C=C/C=C2/N(CCC(=O)N[C@@H]3CSSC[C@@H](C(=O)N[C@@H](CCCCN)C(=O)O)NC(=O)[C@@H]4CCCN4C(=O)[C@H](CO)NC(=O)[C@H](CC(=O)O)NC(=O)[C@H](CCCNC(=N)N)NC(=O)CNC3=O)c3ccc4ccccc4c3C2(C)C)=[N+](CCC(=O)[O-])c2ccc3ccccc3c21` [LS301, cypate-cyclic (DCys-Gly-Arg-Asp-Ser-Pro-Cys)-Lys-OH] (X1-[dC]GRDSPCK-OH; disulfide 1-7), the Kd in test [1] came to 5.67 ± 2.4 nM; on ANXA3, 6.13 ± 0.28 nM. Besides, the “cellular uptake of LS301, mutant ANXA2 (Y23A) cells” value in test [2] (insulin stimulation) was “minimal LS301 uptake”. Besides, in test [2] (stimulation with insulin), the “cellular uptake of LS301, wild-type ANXA2 cells” value is “increased pANXA2 expression and cellular uptake of LS301”. Further, the annexin binding preference entry in test [3] is “preferentially targets ANXA2 over ANXA1 and ANXA3”.
